Here are results for four compounds from publication PMC10708353, “Malvidin and Its Mono- and Di-Glucosides Forms: A Study of Combining Both In Vitro and Molecular Docking Studies Focused on Cholinesterase, Butyrylcholinesterase, COX-1 and COX-2 Activities” (Molecules, 2023).

For data set [1] the following is noted: physiological pH, species established in previous publication, cited from earlier work.
Data set [2] concerns the target T1, COX-2 (human recombinant) (Homo sapiens, UniProt P35354).
T1 construct: purchased Cayman Chemical, Ann Arbor, MI, USA 701050
T1 sequence (P35354 18-604): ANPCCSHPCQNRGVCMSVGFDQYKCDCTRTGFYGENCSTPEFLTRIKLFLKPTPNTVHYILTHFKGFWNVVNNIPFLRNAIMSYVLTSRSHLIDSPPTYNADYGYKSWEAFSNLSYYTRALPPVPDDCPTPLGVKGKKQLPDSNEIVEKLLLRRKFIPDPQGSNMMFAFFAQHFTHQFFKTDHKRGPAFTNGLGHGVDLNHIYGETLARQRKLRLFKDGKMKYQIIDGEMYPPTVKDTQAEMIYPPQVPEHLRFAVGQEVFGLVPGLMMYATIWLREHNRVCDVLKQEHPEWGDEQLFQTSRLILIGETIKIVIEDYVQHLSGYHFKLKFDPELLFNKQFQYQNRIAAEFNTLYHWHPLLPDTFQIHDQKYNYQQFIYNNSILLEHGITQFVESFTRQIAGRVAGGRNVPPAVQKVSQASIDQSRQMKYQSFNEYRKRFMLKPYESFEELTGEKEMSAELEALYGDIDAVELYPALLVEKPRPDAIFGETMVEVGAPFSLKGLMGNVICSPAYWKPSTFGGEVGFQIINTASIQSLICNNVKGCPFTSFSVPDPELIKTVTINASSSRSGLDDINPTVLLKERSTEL
Briefly: COX colorimetric inhibitor screening assay, COX-2. The data set is classed as biochemical. The settings on record: for Selectivity Index COX-2/COX-1: ratio of IC50 COX-2 to IC50 COX-1. The method, then: (§1) Firstly, the plate was carefully shaken for a few seconds and incubated for 5 min at 25 °C. Secondly, 20 μL of colorimetric substrate solution was added to each plate’s well. It was the addition of 20 μL of arachidonic acid (final concentration in reaction mixture 100 µM) which initiated the reaction. Thirdly, the plate was shaken again for a few seconds and incubated for two min at 25 °C. […] The percentage of COX inhibition was calculated using the Equation (1): […]
(§2) The IC50 parameter was calculated referring to plots showing the relation between percentage of COX inhibition and concentration of the compounds.

The target of data set [3] is T2, acetylcholinesterase from Electrophorus electricus, type VI-S (AChE) (Electrophorus electricus, UniProt O42275).
T2 construct: purchased Merck kGaA, Darmstadt, Germany
Briefly: Acetylcholinesterase inhibition assay (Ellman method, modified). The data set is classed as biochemical. The source says: (§3) 5,5′-Dithiobis(2-nitrobenzoic acid), (DTNB), acetylthiocholine iodide, butyryl-thiocholine iodide, acetylcholinesterase from Electrophorus electricus, type VI-S (aChE), Butyrylcholinesterase from equine serum (BChE), neostigmine bromide, and sodium dodecyl sulfate (SDS) were purchased from Merck kGaA, Darmstadt, Germany.
(§4) Referring to both the Ellman and Jin et al. methods, we identified acetylcholinesterase/butyrylcholinesterase activity, implementing minor modifications. In brief, the assay was carried out on a 96-well plate, with each well containing 140 µL 0.1 M phosphate buffer (pH 8.0), 10 µL of stock solution of Mv, or Mv 3-glc or Mv 3,5-diglc, 10 µL AChE/BChE (1 units/mL). The plate was incubated for 10 min at 25 °C. Subsequently, 10 μL of a 10 mM DTNB was added to the reaction mixture. In the following step, the reaction was initiated by adding 10 μL of a 14 mM acetylthiocholine iodide/butyryl-thiocholine iodide. The plate was shaken for one minute and finally 20 µL of 5% SDS was added in order to stop the reaction. Control wells, which contained the same composition except for the studied compounds (10 µL, 70% ethanol), were included. […] All of the reactions were performed in five repetitions. The percent of AChE/BChE inhibition was calculated using the following formula:(1) %Inhibition=Ac−As/Ac·100% where: As refers to the absorbance of the sample containing Mvs and Ac refers to the absorbance of the control sample. The studies of AChE and BChE inhibition were also performed depending on the concentration of the drug, neostigmine, as a positive control.

The target of data set [4] is T3, Butyrylcholinesterase from equine serum (BChE) (Equus caballus, UniProt P81908).
T3 construct: Butyrylcholinesterase from equine serum (BChE); purchased Merck kGaA, Darmstadt, Germany; host or cells: equine serum
Briefly: Butyrylcholinesterase inhibition assay (Ellman method, modified). It counts as biochemical.
Excerpt: as §3, §4

The target of data set [5] is T4, COX-1 (ovine) (Ovis aries, UniProt P05979).
T4 construct: purchased Cayman Chemical, Ann Arbor, MI, USA 701050
T4 sequence (P05979 25-600): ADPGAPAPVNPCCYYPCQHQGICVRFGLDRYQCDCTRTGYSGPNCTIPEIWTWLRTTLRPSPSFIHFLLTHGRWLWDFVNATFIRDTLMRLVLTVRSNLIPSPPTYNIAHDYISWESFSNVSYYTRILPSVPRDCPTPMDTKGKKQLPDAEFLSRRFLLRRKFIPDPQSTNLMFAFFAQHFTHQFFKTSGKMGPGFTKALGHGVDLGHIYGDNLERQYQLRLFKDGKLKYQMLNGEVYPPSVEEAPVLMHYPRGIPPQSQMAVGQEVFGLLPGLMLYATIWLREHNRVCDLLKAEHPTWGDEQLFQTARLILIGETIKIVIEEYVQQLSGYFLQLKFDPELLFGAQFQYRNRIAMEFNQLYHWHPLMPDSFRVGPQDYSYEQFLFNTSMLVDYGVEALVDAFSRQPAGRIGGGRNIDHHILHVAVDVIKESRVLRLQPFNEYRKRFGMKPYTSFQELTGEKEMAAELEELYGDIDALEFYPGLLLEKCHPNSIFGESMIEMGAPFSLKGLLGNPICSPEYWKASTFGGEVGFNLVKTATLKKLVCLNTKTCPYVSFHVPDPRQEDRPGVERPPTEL
Briefly: COX colorimetric inhibitor screening assay, COX-1. It counts as biochemical. The protocol: as §1, §2

[6] abbreviates: compound concentration 100 µM, read-out: Inhibition of AChE (%).
The mark [7] stands for this setting: compound concentration 100 µM, read-out: Inhibition of BChE (%).
The mark [8] stands for this setting: compound concentration 100 µM, 100 µM.

Where two headings read alike, the source gives them in different places. Marks after values point to notes of the source that are not given here.

T3 sequence (P81908 whole entry): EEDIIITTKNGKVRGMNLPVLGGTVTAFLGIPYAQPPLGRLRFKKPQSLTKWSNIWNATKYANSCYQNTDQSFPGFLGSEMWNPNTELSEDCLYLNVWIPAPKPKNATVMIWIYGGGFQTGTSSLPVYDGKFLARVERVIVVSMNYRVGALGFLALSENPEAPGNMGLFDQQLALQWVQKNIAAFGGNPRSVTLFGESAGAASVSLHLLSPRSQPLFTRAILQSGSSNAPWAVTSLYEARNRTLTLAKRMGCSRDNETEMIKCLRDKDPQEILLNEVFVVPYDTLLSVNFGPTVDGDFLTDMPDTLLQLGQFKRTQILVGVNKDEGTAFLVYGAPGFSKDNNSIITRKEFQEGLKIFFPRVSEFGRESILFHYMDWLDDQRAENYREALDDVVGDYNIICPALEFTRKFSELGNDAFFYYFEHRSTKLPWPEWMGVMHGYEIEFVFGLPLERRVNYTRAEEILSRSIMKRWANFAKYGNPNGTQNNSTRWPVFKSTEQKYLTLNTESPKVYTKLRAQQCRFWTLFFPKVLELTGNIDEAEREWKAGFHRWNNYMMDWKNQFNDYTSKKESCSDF
T2 sequence (O42275 24-633): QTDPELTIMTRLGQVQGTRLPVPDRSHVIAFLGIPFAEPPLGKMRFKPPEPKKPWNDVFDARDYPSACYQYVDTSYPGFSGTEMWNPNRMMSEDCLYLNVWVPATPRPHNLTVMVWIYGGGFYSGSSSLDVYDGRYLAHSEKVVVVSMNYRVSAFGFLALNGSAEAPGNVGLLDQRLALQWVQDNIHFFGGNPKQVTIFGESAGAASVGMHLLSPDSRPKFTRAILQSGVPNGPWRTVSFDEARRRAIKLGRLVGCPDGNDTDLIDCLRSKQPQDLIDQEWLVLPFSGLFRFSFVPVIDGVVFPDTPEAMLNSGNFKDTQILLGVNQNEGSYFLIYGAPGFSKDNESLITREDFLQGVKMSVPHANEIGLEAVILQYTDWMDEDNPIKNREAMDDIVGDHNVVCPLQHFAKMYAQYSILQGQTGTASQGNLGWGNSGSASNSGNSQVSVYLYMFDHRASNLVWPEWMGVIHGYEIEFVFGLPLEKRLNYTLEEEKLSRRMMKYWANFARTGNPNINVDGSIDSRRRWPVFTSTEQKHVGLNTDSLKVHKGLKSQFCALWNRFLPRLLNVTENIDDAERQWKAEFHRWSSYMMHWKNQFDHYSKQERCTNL

Broadly, the IC50 is the concentration that inhibits the measured activity by half. Regarding `COc1cc(-c2[o+]c3cc(O)cc(OC4OC(CO)C(O)C(O)C4O)c3cc2OC2OC(CO)C(O)C(O)C2O)cc(OC)c1O` (stereo not drawn) [Mv 3,5-diglc, malvidin 3,5-O-diglucoside], the entries for the “fM (population of the species)” value in data set [1] and in data set [1] (listed as Mv 3,5-diglc^–) were 39.19% and 60.70%, respectively. The IC50 in data set [2] amounted to 66.5 ± 1.93 µM; in data set [5], 90.4 ± 1.92 µM. Further, the “Selectivity Index COX-2/COX-1” value in data set [2] stood at 0.83. Moreover, the inhibition at 100 µM in data set [3] (setting [6]) worked out at 11.9 ± 4.5%; in data set [4] (setting [7]) it was 13.4 ± 2.4%.
For `COc1cc(-c2[o+]c3cc(O)cc(O)c3cc2OC2OC(CO)C(O)C(O)C2O)cc(OC)c1O` (stereo not drawn) [Mv 3-glc, malvidin 3-O-glucoside], the “fM (population of the species)” value in data set [1] was 3.49%; in data set [1] (listed as Mv 3-glc^2−), 18.33%; in data set [1] (listed as Mv 3-glc^−), 78.18%. Besides, the IC50 is 39.9 ± 3.02 µM in data set [2] and 74.78 ± 0.06 µM in data set [5]. Further, in data set [2], the “Selectivity Index COX-2/COX-1” value came to 0.53. In data set [3] (setting [8]), the “Inhibition of AChE (%)” value is recorded as 26.3 ± 3.1 ^a %. In addition, the inhibition at 100 µM in data set [3] (read-out: Inhibition of AChE (%), compound concentration 100 µM) came to 26.3 ± 3.06%; in data set [4] (read-out: Inhibition of BChE (%), compound concentration 100 µM) it was 22.1 ± 3%. The “Inhibition of BChE (%)” value in data set [4] (setting [8]) is given as 22.1 ± 3.0 ^a %.
For `COc1cc(-c2[o+]c3cc(O)cc(O)c3cc2O)cc(OC)c1O` [Mv, malvidin], the “fM (population of the species)” value in data set [1] is reported as 39.56%; in data set [1] (listed as Mv^2−), 8.08%; in data set [1] (listed as Mv^3−) it was 0.13%; in data set [1] (listed as Mv^−), 52.15%. Also, the half-inhibitory concentration (IC50) in data set [2] is 2.76 ± 0.16 µM; in data set [5] it was 12.4 ± 0.7 µM. Besides, the “Selectivity Index COX-2/COX-1” value in data set [2] came to 0.22. Besides, the figures for the inhibition at 100 µM in data set [3] (setting [6]) and in data set [4] (setting [7]) were 19.5 ± 2.3% and 10.2 ± 2.2%, respectively.
As for `CN(C)C(=O)Oc1cccc([N+](C)(C)C)c1` [Neostigmine, neostigmine bromide, reference compound], in data set [3] (neostigmine concentration 0.17 µM, positive control), the inhibition at 0.17 µM is 50 ± 1.2%. The IC50 was 0.17 ± 0.01 µM in data set [3] (positive control) and 20.3 ± 1.7 µM in data set [4] (positive control). The inhibition at 20.28 µM in data set [4] (neostigmine concentration 20.28 µM, positive control) is 50 ± 4.2%.
